Values after ≈ are worked out from the molar mass of the structure shown. Read-outs that look alike come from different tables or passages of the source.

The text below walks through data of publication PMC10928712, “High Target Homology Does Not Guarantee Inhibition: Aminothiazoles Emerge as Inhibitors of Plasmodium falciparum” (ACS Infectious Diseases, 2024).

Series [1] has as its system P. falciparum W2. Set-up: method as in earlier work. Conditions: Novartis HTS 2008; ref (21); cited from earlier work.
Series [2] concerns P. falciparum 3D7. Also noted: method as in earlier work. Particulars: Novartis HTS 2008; ref (21); cited from earlier work.
For series [3], the system named is Huh7 (human hepatoma cells). Conditions: cited from earlier work.
Series [4] concerns P. falciparum 3D7 MOCK cell line. Put plainly: Growth inhibition of MOCK cell line (vector backbone only). The class given is cell-based. Particulars: Plasmodium falciparum, 95% CI in brackets. The text has this: (§1) The open reading frame (ORF) encoding 1-deoxy-D-xylulose-5-phosphate synthase (PfDXPS; PF3D7_1337200) was amplified from genomic DNA isolated from unsynchronized P. falciparum 3D7 cultures using the Platinum PCR SuperMix High Fidelity (Invitrogen). Forward and reverse primers contained restriction sites for KpnI and AvrII in sense and antisense orientation, respectively (oligonucleotides pfDXPS-Kpn1-S: […]; pfDXPSmyc-Avr2-AS: […] ). PCR products and the transfection vector pARL1a-hDHFR PfARG-GFP were digested with KpnI and AvrII, purified (Gel extraction Kit and PCR purification kit; Qiagen), and cloned into the transfection vector yielding the construct for overexpression pARL-DXS-strep. XL 10-Gold E. coli ultracompetent cells (Agilent Technologies) were transformed with the generated construct to amplify the plasmid and colonies checked using restriction analysis and sequencing of the plasmid. Bacterial clones carrying the overexpression construct and the empty pARL1a vector (MOCK plasmid) were amplified in overnight cultures, isolated (Plasmid Maxi Kit; QIAGEN), and subsequently used to transfect P. falciparum 3D7 ring-stage parasites, as already described.[59] Briefly, 120 μg of plasmid DNA was centrifuged and air-dried, and the pellet was resuspended in TE buffer and cytomix reagent and mixed with the P. falciparum culture. Parasites were transfected using electroporation and selected with WR 99210. The generation and characterization of the PfTPK overexpression cell line has been reported before.[60]
(§2) P. falciparum cultures were treated as described in method I. For target specification toward PfTPK and PfDXPS, compounds were tested in comparison against overexpressing cell lines and the respective MOCK line containing only the transfected vector backbone. Parasite viability/proliferation was determined.

The nature of series [5]: Kinetic solubility determination. The format is physicochemical. Conditions: PBS with 2% DMSO, aqueous buffer, kinetic from dmso stock, PBS buffer and 2% DMSO; read-out: Max. solubility. As for the experimental part:
The desired compounds were sequentially diluted in DMSO in a 96-well plate. 3 μL of each well was transferred into another 96-well plate and mixed with 147 μL of PBS. Plates were shaken for 5 min at 600 rpm at room temperature (r.t.), and the absorbance at 620 nm was measured. Absorbance values were normalized by blank subtraction and plotted using GraphPad Prism 8.4.2 (GraphPad Software, San Diego, California, USA). Solubility (S) was determined based on the First X value of AUC function using a threshold of 0.005.

A short description of series [6]: Metabolic stability in human liver S9 fraction. The class given is in vitro ADME. Conditions: 1 μM compound; for half-life at 1 μM: human, pooled liver S9 fraction. The method, then:
For the evaluation of combined phase I and phase II metabolic stability, the compound (1 μM) was incubated with 1 mg/mL pooled liver S9 fraction (XenoTech), 2 mM NADPH, 1 mM UDPGA, 10 mM MgCl2, 5 mM GSH, and 0.1 mM PAPS at 37 °C for 0, 5, 15, 30, and 60 min. The metabolic stabilities of testosterone (1 μM), verapamil (1 μM), and propranolol (1 μM) were determined in parallel to confirm the enzymatic activity of the S9 fraction. The incubation was stopped by precipitation of S9 enzymes with two volumes of cold acetonitrile containing internal standard (150 nM diphenhydramine). Samples were stored on ice for 10 min, and precipitated protein was removed by centrifugation (15 min, 4 °C, 4000 rpm). The concentration of the remaining test compound at the different time points was analyzed by LC-MS/MS (TSQ Quantum Access MAX, Thermo Fisher, Dreieich, Germany) and used to determine half-life (t1/2).

Series [7] has as its system P. falciparum 3D7-TPK+. Put plainly: Growth inhibition of PfTPK overexpressing parasites (3D7-TPK+). Particulars: Plasmodium falciparum, 3D7, read-out: PfTPK IC50. The format is cell-based. As for the experimental part:
P. falciparum cultures were treated as described in method I. For target specification toward PfTPK and PfDXPS, compounds were tested in comparison against overexpressing cell lines and the respective MOCK line containing only the transfected vector backbone. Parasite viability/proliferation was determined. Analysis of the IC50 values and interpretation of the curves was performed, as described in Section 4.1.2.44.
(§3) eq 1: Fluorescence data normalization [drawing 2] where y is the fluorescence signal in each well, yminimum is the background fluorescence, and ymaximum is the highest measured fluorescence signal in the untreated wells. Drug concentrations (in μM) were transformed to the log(10)of the values. Means of each independent experiment were plotted as individual values, and the SD of the mean from the means shown as error bars. […] In case of transgenic cell lines, the built-in comparison Akaike’s information criteria (AICc) method was applied to the Log IC50s of the different cell lines. The test calculates a percentage probability of the simpler model “Log IC50 is the same for datasets” being correct. The test for homoscedasticity was performed to confirm if no weighting of values was appropriate.

Series [8] deals with P. falciparum NF54. The series is described as follows: Method II growth-inhibition assay (PicoGreen, 3 days), NF54. The format is cell-based. Conditions: Plasmodium falciparum; chloroquine-sensitive NF54, method II. From the text: (§4) Fidock (Columbia University).
For series [9], the target named is M. tuberculosis DXPS. Also noted: method as in PMID 36320685. Conditions: Morrison inhibition constant, slow-, tight-binding; read-out: Ki* MtDXPS; cited from earlier work.
Series [10] concerns Mycobacterium tuberculosis H37Rv strain. Also noted: method as in PMID 36320685. Conditions: cited from earlier work.
For series [11], the system named is P. falciparum 3D7. The series is described as follows: Method II growth-inhibition assay (PicoGreen, 3 days), 3D7. The format is cell-based. Particulars: Plasmodium falciparum, 3D7, method II.
Excerpt: as §4

In series [12] the test system is P. falciparum 3D7. Put plainly: Method III growth inhibition assay (HRP2-ELISA, 3 days), 3D7. The format is cell-based, Plasmodium falciparum.
Series [13] has as its system P. falciparum Dd2. The series is described as follows: Method III growth inhibition assay (HRP2-ELISA, 3 days), Dd2. The class given is cell-based, Plasmodium falciparum. Particulars: Plasmodium falciparum, DD2, chloroquine-resistant Dd2, method III. Background: In an ELISA, binding on a coated surface is turned into a signal by an enzyme label.
Series [14] deals with blood-stage P. falciparum 3D7. Particulars: Plasmodium falciparum.
Series [15] concerns Hep G2 cells. The series is described as follows: Hep G2 viability assay (counter screen). The class given is cell-based, human. Particulars: Homo sapiens, HepG2, 48 h, cytotoxicity, 48 h. As for the experimental part: HepG2 cells (2 × 10^5 cells per well) were seeded in 24-well, flat-bottomed plates. Culturing of cells, incubations, and OD measurements were performed as described previously with small modifications.[58] 24 h after seeding the cells, the incubation was started by the addition of compounds in a final DMSO concentration of 1%. The metabolic activity of the living cell mass was determined after 48 h. At least three independent measurements were performed for each compound. The IC50 values were determined during logarithmic growth using GraphPad Prism software. All experiments were performed at least in triplicate, and data reported represent the mean ± SD.

Series [16] has as its system P. falciparum 3D7. Put plainly: Method I growth-inhibition assay (SYBR Green I, 96 h). The class given is cell-based. Conditions: Plasmodium falciparum.
Excerpt: Nonlinear regression as implemented in GraphPad Prism 7.00 (log(inhibitor) vs response – variable slope (four parameters)) was used to fit the measured data to interpolate the IC50 value from the curve. No specific model was applied. Data was preprocessed by normalizing according to the following formula: […]
as §3

The subject of series [17] is P. falciparum 3D7-DXPS+. Put plainly: Growth inhibition of PfDXPS overexpressing parasites (3D7-DXPS+). The format is cell-based. Particulars: Plasmodium falciparum, 3D7, read-out: PfDXPS IC50.
Excerpt: as §1, §2

Where [18] appears, read: 3D7, read-out: MOCK IC50, MOCK compared with 3D7-DXPS+.
The mark [19] stands for this setting: 3D7, read-out: MOCK IC50, MOCK compared with 3D7-TPK+, single measurement.
Setting [20] is: 95% CI in brackets, read-out: IC50 B.
Where [21] appears, read: 3D7, method III (HRP2 assay), drc package of R, read-out: IC50 P. falciparum 3D7 (method III).
Where [22] appears, read: Plasmodium falciparum, 3D7, 3D7, method III (HRP2 assay), drc package of R, read-out: IC50 P. falciparum 3D7 (method III).
[23] abbreviates: Plasmodium falciparum, 3D7, 3D7, method III, nonlinear regression as in Figure 2, 95% CI in brackets, read-out: IC50 C.

A word on the EC50: it is the concentration needed to bring the measured effect to its halfway point. For the compound `COC(C(=NO)c1ccc(Cl)cc1)c1ccccc1` (centres unmarked) [CHEMBL581471], the half-maximal effective concentration (EC50) was greater than 1.61 µM in series [1] and greater than 0.912 µM in series [2]. For the same compound, in [3], the Huh7 inhibition is given as greater than 10 µM.
For orientation: IC50 means the concentration that inhibits the measured activity by half. Usually solubility stands for the concentration that dissolves in the medium under given conditions. As a reminder, the half-life is how long it takes for the measured level to halve. What is called Ki is the equilibrium dissociation constant of an inhibitor or competing ligand from its target. For orientation: MIC means the lowest concentration found to suppress growth. As to `ON=C(Cc1ccc(Cl)cc1)c1ccc(O)cc1O` [compound 2], the IC50 in series [4] (setting [18]) amounted to 110 µM; in series [4] (setting [19]), 90.4 µM; in series [7], 90.4 µM; in [8] it was 41 ± 10 µM; in series [11] (setting [20]) it was 43.8 µM; in series [11] (read-out: IC50 3D7-II) it was 42 ± 4 µM. Further, the IC50 in [12] (setting [21]) was 94 ± 8 µM; in series [12] (setting [22]), 93.8 ± 8 µM; in series [12] (setting [23]), roughly 46 µM; in series [13] it was 89 ± 31 µM; in [14], 44 to 74 µM; in series [15] it was greater than 50 µM. Moreover, the IC50 in [16] (3D7, read-out: IC50 3D7-I) turned out to be 81 ± 3 µM; in [16] (3D7, read-out: IC50 A [μM]), 74.2 µM; in series [17], 110 µM. Further, the solubility at 5 min in series [5] came out at 114 ± 6.7 µM (≈ 31.7 µg/mL). For the same compound, the t1/2 in series [6] amounted to 29 ± 0.7 min. Besides, in [6], the half-life at 1 μM is 28 min. Further, in series [9], the Ki is 0.27 ± 0.02 µM. Besides, the minimum inhibitory concentration (MIC) in [10] was 10 µM (≈ 2.78 µg/mL).
Regarding `OCc1cn(Cc2ccc(Cl)c(Cl)c2)c2ccccc12` [compound 3], the IC50 in series [4] (setting [18]) came to 17.9 µM; in series [4] (setting [19]) it was 23.8 µM; in series [7], 21.1 µM; in series [8], 15 ± 2 µM; in [11] (setting [20]), 17.1 µM; in series [11] (read-out: IC50 3D7-II) it was 17 ± 2 µM. Besides, the half-maximal inhibitory concentration (IC50) in series [12] (setting [21]) was 24 ± 6 µM; in series [12] (setting [22]) it was 23.6 ± 6.4 µM; in series [12] (setting [23]), 7.9 µM; in [13], 13 ± 9 µM; in [14], 8 to 21 µM; in series [15] it was 0.8 ± 0.2 µM. Further, the IC50 was found to be 25 ± 3 µM in series [16] (3D7, read-out: IC50 3D7-I); 21.4 µM in [16] (3D7, read-out: IC50 A [μM]); 17.9 µM in series [17]. In series [6], this compound registered a half-life at 1 μM of 10 ± 0.4 min. In [9], the Ki was 1.29 ± 0.2 µM. Also, in series [10], the minimum inhibitory concentration (MIC) is 10 µM (≈ 3.06 µg/mL).
